One experiment has as its target T1, SLAMF1-TRAM interaction (Homo sapiens, UniProt Q86XR7).
T1 construct: expressed in transfected cells; host or cells: HEK-293T
In words: Co-precipitation of SLAMF1 and TRAM^Flag in the presence of ECFP-tagged peptides. The format is binding. Particulars: N-terminal ECFP-tagged peptides, HEK-293T lysates, anti-Flag IP. The text has this: (A) Western blot analysis of SLAMF1 and TRAM^Flag co-precipitated in the presence of CFP-tagged peptides. TRAM^Flag was precipitated from cell lysates on agarose beads and distributed across 15 tubes. […] Unbound proteins/peptides were removed by a washing step, and pecipitates analysed by WB (anti-Flag IPs). Reduced SLAMF1 binding to TRAM indicates inhibition of the TRAM/SLAMF1 interaction by the peptide. (B) Sequences of the peptides that were expressed as ECFP-tagged proteins (N-terminal ECFP). Peptides 4 and 5 are not shown and were not pursued.
HEK293T cells expressing Flag-tagged proteins were lysed using 1×lysis buffer (150 mM NaCl, 50 mM TrisHCl (pH 8.0), 1 mM EDTA, 1% NP40), supplemented with EDTA-free Complete Mini protease Inhibitor Cocktail Tablets and PhosSTOP phosphatase inhibitor cocktail from Roche, 50 mM NaF and 2 mM […] (Sigma). IPs were carried out by rotation of cell lysates at 4° C. for 2 h with anti-flag (M2) agarose (Sigma). Beads were washed 5 times with lysis buffer and heated for 5 min with 1×NuPAGE® LDS Sample Buffer (Thermo Fisher Scientific) before analysis of precipitates by Western blotting. […]
Inhibition of the TRAM-SLAMF1 interaction using SLAMF1-derived peptides was tested. For the first line of experiments, SLAMF1-derived peptides were co-expressed as N-terminal ECFP-tagged proteins together with SLAMF1 and TRAM^FLAG constructs in HEK-293T cells.

Experiment [1] relates to TLR4. In words: Primary human macrophages stimulated with LPS: cytokine mRNA and p38 MAPK phosphorylation. The class given is cell-based. Particulars: LPS-treated primary human macrophages. The procedure: (§1) Primary human macrophages (PBMC derived, differentiated in media with 10% human serum and M-CSF 20 ng/ml, 7 days) were stimulated with K12 LPS (100 ng/ml), FSL-1 (100 ng/ml) or CL075 (3 μg/ml). […] (B) qPCR for mRNA expression of IFNβ, IL-6, TNF and IL-1β, average for three biological replicates, error bars ±SD.
(§2) The effect of P7-Pen on TLR2-mediated pro-inflammatory cytokine expression was investigated.

Experiment [2] deals with TLR4. Briefly: Western blot of LPS signalling in murine immortalized BMDMs. The format is cell-based, mouse. Particulars: murine macrophages, 10 μM, LPS. The method, then: Western blot analysis of lysates from cells pretreated with media containing controls (water, DMSO or 10 μM control peptide C3-Pen) or P7-Pen peptide for 30 min before stimulation with LPS (K12 LPS, 100 ng/ml) for designated time periods.
Protein pellets were dissolved by heating protein pellets for 10 min at 95° C. in buffer containing 4 M urea, 1 SDS (Sigma) and NuPAGE® LDS Sample Buffer (4×) (Thermo Fisher Scientific). Otherwise, lysates were made using 1× RIPA lysis buffer (150 mM NaCl, 50 mM TrisHCl (pH 7.5), 1% Triton X100, 5 mM EDTA, protease inhibitors, phosphatase inhibitors). For Western blot analysis we used pre-cast protein gels NuPAGE™ Novex™ and iBlot Transfer Stacks iBlot Gel Transfer Device (Thermo Fisher Scientific). Proteins were transferred to the membrane by dry-blotting using iBlot® 2 NC Regular/Mini Stacks (Life Technologies) in the iBlot 2 Dry Blotting System (Life Technologies). After secondary antibody incubation, membranes were washed and incubated with HRP substrate solution (SuperSignal™ West Femto Maximum Sensitivity Substrate (Thermo Fisher Scientific)). Images were taken using Odyssey® Fc (LI-CORE). Quantification graphs were generated by the analysis of signal intensities for protein bands (protein of interest and endogenous loading control—β-tubulin from the same membrane) using Odyssey software (LI-CORE). Data were normalised to the expression levels of β-tubulin and presented as a relative fold change to the control sample.
In addition, pre-treatment of murine macrophages with P7-Pen inhibited LPS-mediated phosphorylation of TBK1 and IκBα, and decreased phosphorylation of p38 MAPK (FIG. 23).

The test system of another experiment is TLR8. Briefly: Primary human macrophages stimulated with CL075: cytokine mRNA, Western blot, IRAK precipitations. The format is cell-based. Particulars: CL075-treated primary human macrophages. The procedure: as §1
(§3) Primary human macrophages (7 days) were pre-treated with Pen or P7-Pen (15 μM) for 30 min before addition of LPS (100 ng/ml), FSL-1 (100 ng/ml) or CL075 (3 μg/ml). A: Protein expression in lysates for input control. B,C: Precipitations were performed using sheep anti-IRAK4 (B) or anti-IRAK1 (C) polyclonal antibodies covalently bound to magnetic beads.
For orientation: Immunoblotting shows a protein as a band on a membrane.

Another experiment concerns TLR2. Briefly: Primary human macrophages stimulated with FSL-1: cytokine mRNA, Western blot, IRAK precipitations. The format is cell-based. The method, then:
as §1, §3, §2

In another experiment the target is T2, SLAMF1 (Homo sapiens, UniProt Q13291).
T2 sequence (Q13291 21-335): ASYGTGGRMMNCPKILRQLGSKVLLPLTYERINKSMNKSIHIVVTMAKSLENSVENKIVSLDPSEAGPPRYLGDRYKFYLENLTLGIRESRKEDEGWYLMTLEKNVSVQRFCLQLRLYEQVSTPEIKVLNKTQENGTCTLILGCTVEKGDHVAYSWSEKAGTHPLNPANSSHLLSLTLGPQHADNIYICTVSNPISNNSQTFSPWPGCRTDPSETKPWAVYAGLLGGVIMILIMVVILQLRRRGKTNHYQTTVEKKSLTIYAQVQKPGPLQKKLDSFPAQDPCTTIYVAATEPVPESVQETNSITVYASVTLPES
In words: Co-precipitation of SLAMF1 with peptide. The format is binding. Particulars: data not shown. The text has this:
The striking effect of the P7 peptide on bacterial uptake could explain the blockade of TLR4-mediated IFNβ secretion by this peptide, because activation of IFNβ expression can only be initiated from the endosomal compartment. This effect could also be mediated by peptide interaction with Rab11 FIP2 (data not shown), which is a crucial regulator of TRAM trafficking and the uptake of both Gram-negative and Gram-positive bacteria by macrophages (Skjesol, supra). […] P7 is derived from a C-terminal β-sheet, and so could complex with the SLAMF1 N-terminal beta sheet. Given the effect of P7-Pen on bacterial uptake, it could be used to block bacterial uptake by monocytes, thus making bacteria more exposed to antibiotic treatment.

T1 sequence (Q86XR7 whole entry): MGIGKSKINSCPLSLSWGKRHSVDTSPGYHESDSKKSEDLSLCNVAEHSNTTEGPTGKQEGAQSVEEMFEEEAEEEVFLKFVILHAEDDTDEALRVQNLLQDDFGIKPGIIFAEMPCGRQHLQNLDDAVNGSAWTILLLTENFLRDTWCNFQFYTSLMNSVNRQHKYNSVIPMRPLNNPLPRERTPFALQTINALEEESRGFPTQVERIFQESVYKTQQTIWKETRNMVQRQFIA

“P7: SEQ ID NO: 1; amino acids 324-333 of SLAMF1 with a proline to threonine substitution at position 10 (ITVYASVTLT; P7) [Peptide P7]”: the “inhibitory effect on SLAMF1-TRAM co-precipitation” value with SLAMF1-TRAM interaction was “highest efficacy”. Moreover, the “phosphorylation of p38 MAPK and IL-6, TNF and IL-1β expression” value with TLR4 [1] was “fully inhibited”; in the experiment on TLR8, “not”; with TLR2 (FSL-1-treated primary human macrophages), “not”. Besides, the “phosphorylation of TAK1 kinase and IRAK1 ubiquitination/phosphorylation” value with TLR4 [2] was “interfered”. Moreover, in the experiment on TLR2 (TLR2-stimulated cells, 15 μM, FSL-1 100 ng/ml), the “phosphorylation of p38 MAPK, posttranslational modifications of IRAK1, recruitment of IRAK1 and 4 to MyD88” value is “does not inhibit”. Also, the “co-precipitation of SLAMF1” value with SLAMF1 is listed as “could also co-precipitate”.

The record behind these values is patent US20230220047A1, “PEPTIDES FOR TREATMENT OF SEPSIS AND CANCER” (NORWEGIAN UNIVERSITY OF SCIENCE AND TECHNOLOGY (NTNU), priority 2020, published 2023).
